We go through one compound from US7754896B2, “Indol-alanine derivatives as selective S1P4-agonists” (Novartis AG, priority 2004, dated 2010).

Each structure is given as a SMILES string.

One experiment concerns the target T1, S1P5 (Homo sapiens, UniProt Q9H228).
T1 construct: expressed in transfected cells
Briefly: GTPγS binding assay, S1P5. The class given is biochemical. Particulars: CHO cells expressing S1P5. From the text:
The human S1P5 (GI: 30171332 or GenBank™ accession number AY262689, TREMBL: Q9H228) is cloned by a PCR based method. Lung and spleen cDNA (marathon cDNA) is obtained from BD Biosciences Chlontech (BD Biosciences Chlontech, Palo Alto, Calif. 94303, USA); genomic DNA is isolated from HeLa cells using standard procedures. Following oligonucleotides are used for the PCR reaction: forward primer CACCATGGAGTCGGGGCTGCTGCG (−4 to 20, GenBank™ accession number AY262689) and reverse primer 5′-TCAGTCTGCAGCCGGTTCTGATACCAGAGTC (1197 to 1131, AY262689), the initiation of the translation (ATG) and the stop codon are underlined. The PCR is performed In the presence of 0.2-0.4 μg cDNA, 1× reaction buffer (10× PfuTurbo DNA polymerase buffer, Stratagene, La Jolla, Calif. 92037, USA), 0.5 μM primers, 0.25 mM dNTP's and 2.5 units PfuTurbo DNA polymerase (Stratagene), a first step at 95° C. for 2 min, 30 cycles (30 sec at 95° C., 30 sec at 60° C. and 90 sec at 72° C.) and final step of 10 min at 72° C. The amplified product of around 1100 bp is analyzed by standard agarose gel-electrophoresis. […]
Membrane proteins are prepared from wild type CHO-K1 and the CHO cell clones expressing human S1P4. […] The protein concentration is determined using the Bio Rad Protein Assay and human IgG as standard. […]
A general note: Binding of GTPγS marks nucleotide exchange on a G protein.

For another experiment, the system named is CHO. As to the kind of experiment: Calcium mobilization assay, parental CHO cells. Particulars: Cricetulus griseus. The class given is cell-based. On the procedure: CHO cells are plated in black Costar plate (96 or 384 well, 50,000 cells or 12,500 cells, respectively) in a MEM with FCS and cultured for 20-24 h at 37° C. in a CO2 incubator. After the removal of the culture medium cells are incubated in HBSS medium containing 2 μM Fluo4AM (Molecular Probes, Cat. No, F-1241; 1 mg/ml stock in DMSO), 5 mM probenicid for 1 h at 37° C., rinsed with HBSS buffer, 2.5 mM probenicid and overlaid with the same medium (75 μl for 96-well plates, 50 μl for 384 plates). The plates are transferred to the FLIPR. After measuring the baseline for 40 sec, the agonist in HBSS is added and the fluorescence is measured at intervals of 2 sec for 3 to 5 min. In some cases the cells are pre-treated for 5 h with 50 ng/ml pertussis toxin (Sigma, Cat Nr P2980). […]
The compounds mentioned in this application are tested for specificity, e.g. the activity they have in the parental cell line prior transformation with the S1P4 cDNA and for selectivity on CHO cells lines transformed with the S1P1, S1P2, S1P3, and S1P5. […] For example, S1P4 specific and selective compounds may have an EC50 (apparent EC50) measured at S1P4 that is 10×, preferably 100× lower that that measured in wild type CHO cells or In cell expressing any of the other four S1P receptors.

T1 sequence (Q9H228 whole entry): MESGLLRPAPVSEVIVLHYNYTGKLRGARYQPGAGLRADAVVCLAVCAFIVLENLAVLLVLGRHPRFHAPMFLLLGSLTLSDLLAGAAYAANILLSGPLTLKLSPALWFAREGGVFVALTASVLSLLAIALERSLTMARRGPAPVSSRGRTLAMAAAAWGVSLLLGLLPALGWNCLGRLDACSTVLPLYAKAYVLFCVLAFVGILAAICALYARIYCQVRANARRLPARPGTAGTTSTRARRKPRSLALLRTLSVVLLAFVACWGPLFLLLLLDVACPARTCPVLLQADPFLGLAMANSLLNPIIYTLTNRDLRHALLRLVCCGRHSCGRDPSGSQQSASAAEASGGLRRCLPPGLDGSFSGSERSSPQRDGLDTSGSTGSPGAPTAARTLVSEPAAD

For `NC(CNC(=O)c1cc2c(-c3ccccc3Cc3ccccc3)cccc2[nH]1)C(=O)O` (centres unmarked) [Example 2], the results for the EC50 at S1P5 and in the experiment with CHO were above 10 µM and above 6 µM, respectively.

As usually defined, the EC50 is the midpoint of the concentration-response curve.
